Laboratory results: US20230233569A1 (Revolution Medicines, Inc., priority 2020, published 2023)
Where two headings read alike, the source gives them in different places.

Legend:
[1] = test system: Capan-1 (K-Ras G12V); assay: CellTiter-Glo cell viability assay, 5-day treatment; type: cell-based; conditions: Homo sapiens, CAPAN-1, 120 h, 5-day treatment; read-out: Capan-1 Cell Viability assay data (K-Ras G12V, IC50)
Procedure, shortened: (§1)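 Luminescence read-out after 5 days of compound exposure, with plates first brought to room temperature for roughly 30 minutes. Values are percent of averaged DMSO wells, fitted by four-parameter logistic regression.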

[2] = test system: NCI-H358 (K-Ras G12C); assay: as above; type: cell-based; conditions: Homo sapiens, NCI-H358, 120 h, 5-day treatment; read-out: H358 Cell Viability assay data (K-Ras G12C, IC50)
Procedure, shortened: as §1

[3] = molecular target: KRAS G12D (Homo sapiens, UniProt P01116+P62937, G12D); assay: Disruption of BRAF RBD interaction with Ras (FRET / MOA assay, with Cyclophilin A); type: biochemical
Procedure, shortened: (§2)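 Compound-driven ternary complex formation between nucleotide-loaded K-Ras and Cyclophilin A was measured as loss of BRAF RBD binding. Compounds (10-point 3-fold series, top 30 μM final) were incubated 3 h at 25 °C, then anti-His Eu-W1024 (10 nM) and anti-GST allophycocyanin (50 nM) added for 1.5 h. IC50 was taken from the TR-FRET ratio decrease versus DMSO.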

[4] = molecular target: KRAS G12S (Homo sapiens, UniProt P01116+P62937, G12S); assay: as above; type: biochemical
Procedure, shortened: as §2

[5] = molecular target: KRAS G12C (Homo sapiens, UniProt P01116+P62937, G12C); assay: as above; type: biochemical
Procedure, shortened: as §2

[6] = molecular target: KRAS G13D (Homo sapiens, UniProt P01116+P62937, G13D); assay: as above; type: biochemical
Procedure, shortened: as §2

[7] = molecular target: KRAS G12V (Homo sapiens, UniProt P01116+P62937, G12V); assay: as above; type: biochemical
Procedure, shortened: as §2

[8] = molecular target: KRAS G13C (Homo sapiens, UniProt P01116+P62937, G13C); assay: as above; type: biochemical
Procedure, shortened: as §2

[9] = molecular target: KRAS WT (Homo sapiens, UniProt P01116+P62937); assay: as above; type: biochemical
Procedure, shortened: as §2

[10] = molecular target: NRAS G12C (Homo sapiens, UniProt P01111+P62937, G12C); assay: as above; type: biochemical
[11] = read-out: KRAS G12D FRET data, IC50
[12] = read-out: KRAS G12S FRET data, IC50
[13] = read-out: KRAS G12C FRET data, IC50
[14] = KRAS G13D, read-out: KRAS G13D FRET data IC50
[15] = KRAS G12V, read-out: KRAS G12V FRET data IC50
[16] = read-out: KRAS G13C FRET data, IC50
[17] = KRAS WT, read-out: KRAS WT FRET data IC50
[18] = NRAS G12C, read-out: NRAS G12C FRET data IC50
[19] = KRAS G13D FRET data IC50, KRAS G13D
[20] = KRAS G12V FRET data IC50, KRAS G12V
[21] = KRAS WT FRET data IC50, KRAS WT
[22] = NRAS G12C FRET data IC50, NRAS G12C

Sequence of KRAS G12V (P01116 1-169 isoform P01116-2 G12V limits assumed): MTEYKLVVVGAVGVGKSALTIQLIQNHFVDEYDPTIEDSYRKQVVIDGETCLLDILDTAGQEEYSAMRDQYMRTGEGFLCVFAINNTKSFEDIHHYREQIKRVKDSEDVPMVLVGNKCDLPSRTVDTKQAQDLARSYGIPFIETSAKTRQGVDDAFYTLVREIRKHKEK
Sequence of KRAS G12V (P62937 whole entry): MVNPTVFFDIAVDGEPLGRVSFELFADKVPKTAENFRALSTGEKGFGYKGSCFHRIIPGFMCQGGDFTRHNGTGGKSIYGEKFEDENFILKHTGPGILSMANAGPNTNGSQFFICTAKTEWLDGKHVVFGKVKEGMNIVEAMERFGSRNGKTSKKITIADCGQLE
Sequence of NRAS G12C (P01111 whole entry G12C): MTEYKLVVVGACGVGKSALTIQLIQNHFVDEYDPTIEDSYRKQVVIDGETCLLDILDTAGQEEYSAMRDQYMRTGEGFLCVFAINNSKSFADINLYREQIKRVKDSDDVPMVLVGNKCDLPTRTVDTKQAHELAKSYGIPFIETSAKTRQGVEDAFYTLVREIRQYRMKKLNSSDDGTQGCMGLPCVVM
Sequence of NRAS G12C (P62937 whole entry): as the sequence (P62937 whole entry) above
Sequence of KRAS G12D (P01116 1-169 isoform P01116-2 G12D limits assumed): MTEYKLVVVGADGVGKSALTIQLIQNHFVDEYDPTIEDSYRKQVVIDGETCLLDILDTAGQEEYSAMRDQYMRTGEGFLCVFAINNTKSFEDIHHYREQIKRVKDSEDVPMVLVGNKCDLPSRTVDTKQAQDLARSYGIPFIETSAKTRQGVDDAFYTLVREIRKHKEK
Sequence of KRAS G12D (P62937 whole entry): as the sequence (P62937 whole entry) above
Sequence of KRAS G13C (P01116 1-169 isoform P01116-2 G13C): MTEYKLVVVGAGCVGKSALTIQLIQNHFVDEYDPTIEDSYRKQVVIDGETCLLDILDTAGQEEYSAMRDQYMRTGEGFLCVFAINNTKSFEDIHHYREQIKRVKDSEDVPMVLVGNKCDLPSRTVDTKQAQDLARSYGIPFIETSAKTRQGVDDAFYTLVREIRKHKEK
Sequence of KRAS G13C (P62937 whole entry): as the sequence (P62937 whole entry) above
Sequence of KRAS WT (P01116 1-169 isoform P01116-2 limits assumed): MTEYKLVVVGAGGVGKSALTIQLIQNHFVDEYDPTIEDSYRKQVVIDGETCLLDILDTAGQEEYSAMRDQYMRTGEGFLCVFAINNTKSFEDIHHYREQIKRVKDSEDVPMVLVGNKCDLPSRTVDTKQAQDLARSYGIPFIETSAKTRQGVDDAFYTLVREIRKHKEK
Sequence of KRAS WT (P62937 whole entry): as the sequence (P62937 whole entry) above
Sequence of KRAS G12C (P01116 1-169 isoform P01116-2 G12C): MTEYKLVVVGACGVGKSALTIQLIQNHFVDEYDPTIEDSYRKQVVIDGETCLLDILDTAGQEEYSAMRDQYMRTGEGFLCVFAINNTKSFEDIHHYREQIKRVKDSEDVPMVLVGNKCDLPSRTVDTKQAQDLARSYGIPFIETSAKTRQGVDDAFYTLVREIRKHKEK
Sequence of KRAS G12C (P62937 whole entry): as the sequence (P62937 whole entry) above
Sequence of KRAS G12S (P01116 1-169 isoform P01116-2 G12S limits assumed): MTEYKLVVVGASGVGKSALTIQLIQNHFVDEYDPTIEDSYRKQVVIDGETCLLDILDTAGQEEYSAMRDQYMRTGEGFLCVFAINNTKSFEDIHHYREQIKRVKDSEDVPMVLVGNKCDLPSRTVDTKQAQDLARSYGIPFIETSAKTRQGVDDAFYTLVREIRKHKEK
Sequence of KRAS G12S (P62937 whole entry): as the sequence (P62937 whole entry) above
Sequence of KRAS G13D (P01116 1-169 isoform P01116-2 G13D limits assumed): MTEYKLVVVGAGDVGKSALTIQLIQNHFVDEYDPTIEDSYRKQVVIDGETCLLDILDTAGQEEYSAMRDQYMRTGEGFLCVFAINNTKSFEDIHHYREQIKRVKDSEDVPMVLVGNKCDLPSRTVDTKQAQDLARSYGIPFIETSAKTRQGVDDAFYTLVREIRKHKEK
Sequence of KRAS G13D (P62937 whole entry): as the sequence (P62937 whole entry) above

| SMILES | IC50 [1] [nM] | IC50 [2] [nM] | IC50 [3, 11] [nM] | IC50 [4, 12] [nM] | IC50 [5, 13] [nM] | IC50 [6, 14] [nM] | IC50 [7, 15] [nM] | IC50 [8, 16] [nM] | IC50 [9, 17] [nM] | IC50 [10, 18] [nM] | IC50 ([3]; KRAS G12D FRET data, IC50) [nM] | IC50 ([4]; KRAS G12S FRET data, IC50) [nM] | IC50 ([5]; KRAS G12C FRET data, IC50) [nM] | IC50 [6, 19] [nM] | IC50 [7, 20] [nM] | IC50 ([8]; KRAS G13C FRET data, IC50) [nM] | IC50 [9, 21] [nM] | IC50 [10, 22] [nM] |
| --- | --- | --- | --- | --- | --- | --- | --- | --- | --- | --- | --- | --- | --- | --- | --- | --- | --- | --- |
| CCn1c(-c2cccnc2[C@H](C)OC)c2c3cc(ccc31)-c1cc(O)cc(c1)C[C@H](NC(=O)[C@H](C(C)C)N(C)C(=O)[C@H]1CCN(C(=O)CNC)C1)C(=O)N1CCC[C@H](N1)C(=O)OCC(C)(C)C2 (atropisomer, axis not shown) [Example A120] | > 10000 | 1000 to 10000 | 10 to 100 | 10 to 100 | 10 to 100 | 100 to 1000 | 100 to 1000 | 100 to 1000 | 100 to 1000 | 10 to 100 |  |  |  |  |  |  |  |  |
| CCn1c(-c2cccnc2[C@H](C)OC)c2c3cc(ccc31)-c1cc(O)cc(c1)C[C@H](NC(=O)[C@H](C(C)C)N(C)C(=O)[C@H]1C[C@@H](O)C1)C(=O)N1CCC[C@H](N1)C(=O)OCC(C)(C)C2 (atropisomer, axis not shown) [Example A121] | 100 to 1000 | 100 to 1000 |  |  |  |  |  |  |  |  | 100 to 1000 | 10 to 100 | 10 to 100 | 10 to 100 | 10 to 100 | 10 to 100 | 10 to 100 | 10 to 100 |
| CCn1c(-c2cccnc2[C@H](C)OC)c2c3cc(ccc31)-c1cc(O)cc(c1)C[C@H](NC(=O)[C@H](C(C)C)N(C)C(=O)[C@H]1CCC[C@H]1N)C(=O)N1CCC[C@H](N1)C(=O)OCC(C)(C)C2 (atropisomer, axis not shown) [Example A131] | 100 to 1000 | 10 to 100 | 10 to 100 | 10 to 100 | 10 to 100 | 10 to 100 | 100 to 1000 | 10 to 100 | 10 to 100 | 10 to 100 |  |  |  |  |  |  |  |  |
| CCn1c(-c2cccnc2[C@H](C)OC)c2c3cc(ccc31)-c1cc(O)cc(c1)C[C@H](NC(=O)[C@H](C(C)C)N(C)C(=O)C1(O)CC1)C(=O)N1CCC[C@H](N1)C(=O)OCC(C)(C)C2 (atropisomer, axis not shown) [Example A132] | 10 to 100 | 100 to 1000 | 100 to 1000 | 100 to 1000 | 10 to 100 | 100 to 1000 | 100 to 1000 | 10 to 100 | 100 to 1000 | 100 to 1000 |  |  |  |  |  |  |  |  |
| CCn1c(-c2cccnc2[C@H](C)OC)c2c3cc(ccc31)-c1cc(O)cc(c1)C[C@H](NC(=O)[C@H](C(C)C)N(C)C(=O)[C@H]1CCN(C(=O)CN)C1)C(=O)N1CCC[C@H](N1)C(=O)OCC(C)(C)C2 [Example A1] | 1000 to 10000 | 1000 to 10000 | 10 to 100 | 10 to 100 | 10 to 100 | 10 to 100 | 10 to 100 | 10 to 100 | 10 to 100 | 10 to 100 |  |  |  |  |  |  |  |  |
| CCn1c(-c2cnccc2COC)c2c3cc(ccc31)-c1cc(O)cc(c1)C[C@H](NC(=O)[C@H](C(C)C)N(C)C(=O)[C@H]1CCN(C(=O)OC)C1)C(=O)N1CCC[C@H](N1)C(=O)OCC(C)(C)C2 [Example A11, methyl (3S)-3-{[(1S)-1-{[(8S,14S)-22-ethyl-4-hydroxy-21-[4-(methoxymethyl)pyridin-3-yl]-18,18-dimethyl-9,15-dioxo-16-oxa-10,22,28-triazapentacyclo[18.5.2.1^2,6.1^10,14.0^23,27]nonacosa-1(26),2,4,6(29),20,23(27),24-heptaen-8-yl]carbamoyl}-2-methylpropyl](methyl)carbamoyl}pyrrolidine-1-carboxylate] | 100 to 1000 | 100 to 1000 |  |  |  |  |  |  |  |  | 1000 to 10000 | 100 to 1000 | 10 to 100 | 100 to 1000 | 10 to 100 | 100 to 1000 | 100 to 1000 | 10 to 100 |
| CCn1c(-c2cnccc2COC)c2c3cc(ccc31)-c1cc(O)cc(c1)C[C@H](NC(=O)[C@H](C(C)C)N(C)C(=O)[C@H]1CCN(C=O)C1)C(=O)N1CCC[C@H](N1)C(=O)OCC(C)(C)C2 [Example A17, (2S)—N-[(8S,14S)-22-ethyl-4-hydroxy-21-[4-(methoxymethyl)pyridin-3-yl]-18,18-dimethyl-9,15-dioxo-16-oxa-10,22,28-triazapentacyclo[18.5.2.1^2,6.1^10,14.0^23,27]nonacosa-1(26),2,4,6(29),20,23(27),24-heptaen-8-yl]-2-{1-[(3S)-1-formylpyrrolidin-3-yl]-N-methylformamido}-3-methylbutanamide] | 1000 to 10000 | 1000 to 10000 |  |  |  |  |  |  |  |  | 1000 to 10000 | 100 to 1000 | 10 to 100 | 100 to 1000 | 100 to 1000 | 100 to 1000 | 100 to 1000 | 100 to 1000 |
| CCn1c(-c2cccnc2[C@H](C)OC)c2c3cc(ccc31)-c1cc(O)cc(c1)C[C@H](NC(=O)[C@H](C(C)C)N(C)C(=O)C1COC1)C(=O)N1CCC[C@H](N1)C(=O)OCC(C)(C)C2 [Example A18] | 100 to 1000 | 100 to 1000 | 1000 to 10000 | 100 to 1000 | 10 to 100 | 100 to 1000 | 100 to 1000 | 100 to 1000 | 100 to 1000 | 100 to 1000 |  |  |  |  |  |  |  |  |
| CCn1c(-c2cnccc2COC)c2c3cc(ccc31)-c1cc(O)cc(c1)C[C@H](NC(=O)[C@H](C(C)C)N(C)C(=O)C1C[C@@H]1C)C(=O)N1CCC[C@H](N1)C(=O)OCC(C)(C)C2 (some centres unmarked) [Example A19] | 100 to 1000 | 100 to 1000 | 1000 to 10000 | 100 to 1000 | 10 to 100 | 100 to 1000 | 100 to 1000 | 100 to 1000 | 100 to 1000 | 100 to 1000 |  |  |  |  |  |  |  |  |
| CCn1c(-c2cnccc2[C@H](C)OC)c2c3cc(ccc31)-c1cc(O)cc(c1)C[C@H](NC(=O)[C@H](C(C)C)N(C)C(C)=O)C(=O)N1CCC[C@H](N1)C(=O)OCC(C)(C)C2 [Example A21] | 100 to 1000 | 100 to 1000 | 1000 to 10000 | 100 to 1000 | 100 to 1000 | 100 to 1000 | 100 to 1000 | 10 to 100 | 100 to 1000 | 100 to 1000 |  |  |  |  |  |  |  |  |
| CCn1c(-c2cnccc2COC)c2c3cc(ccc31)-c1cc(O)cc(c1)C[C@H](NC(=O)[C@H](C(C)C)N(C)C(=O)[C@H]1CCOC1)C(=O)N1CCC[C@H](N1)C(=O)OCC(C)(C)C2 [Example A26] | 100 to 1000 | 100 to 1000 | 1000 to 10000 | 100 to 1000 | 100 to 1000 | 100 to 1000 | 100 to 1000 | 100 to 1000 | 100 to 1000 | 100 to 1000 |  |  |  |  |  |  |  |  |
